Data set [1] can be described thus: Activation of LPS-induced NO production in BCG-treated ICR mouse macrophages at 50 to 1000 mg/kg/day, po administered for 3 days before BCG immunization measured after 24 hrs of LPS challenge by Griess reagent method. In kind it is functional, organism-based. As to conditions: Macrophage.
The test system of data set [2] is Mus musculus. Kind of data set: Antiinflammatory activity against po dosed ICR mouse assessed as number of peritoneal exudate cells. The data set is classed as functional.
In data set [3] the test system is Macrophage. Kind of data set: Increase in LPS-induced NO production in ICR mouse at 1 mg/kg/day, po 0 to 2 days administered before BCG immunization measured after 24 hrs of LPS challenge by Griess reagent method. The data set is classed as functional, organism-based. (The Griess reaction detects nitrite, a stable product of nitric oxide.)
Data set [4] concerns Macrophage. As to the kind of experiment: Increase in LPS-induced NO production in ICR mouse at 1 mg/kg/day, po 0 to 2 days administered after BCG immunization measured after 24 hrs of LPS challenge by Griess reagent method. The data set is classed as functional, organism-based.
A short description of data set [5]: Activation of LPS-induced NO production in BCG-treated ICR mouse macrophages at 1 mg/kg/day, po administered for 3 days before BCG immunization measured after 72 hrs of LPS challenge by Griess reagent method. The data set is classed as functional, organism-based. The settings on record: Macrophage.
Data set [6] concerns Macrophage. As to the kind of experiment: Activation of NO production in BCG-treated ICR mouse macrophages at 1 mg/kg/day, po administered for 3 days before BCG immunization measured after 72 hrs of LPS challenge by Griess reagent method. The data set is classed as functional, organism-based.
Data set [7] can be described thus: Cytotoxicity against LPS-stimulated ICR mouse macrophages assessed as cell viability at 1 mg/kg/day after 72 hrs of LPS challenge by MTT assay. The data set is classed as organism-based, Macrophage. The settings on record: read-out: Activity. A general note: Formazan colour is commonly taken as a measure of viable cells.
A short description of data set [8]: Cytotoxicity against ICR mouse macrophages assessed as cell viability at 1 mg/kg/day after 72 hrs by MTT assay. The settings on record: read-out: Activity. In kind it is organism-based, Macrophage.
A short description of data set [9]: Activation of LPS-induced NO production in BCG-treated ICR mouse macrophages at 5 mg/kg/day, po administered for 3 days before BCG immunization measured after 24 hrs of LPS challenge by Griess reagent method. In kind it is functional, organism-based. The settings on record: Macrophage.
Data set [10] has as its system Mus musculus. As to the kind of experiment: Toxicity in ICR mouse assessed as occurrence of diarrhea at 5 mg/kg/day, po. The data set is classed as organism-based. As to conditions: in vivo. Details: route oral.
In data set [11] the test system is Macrophage. Kind of data set: […] of LPS-induced NO production in BCG-treated ICR mouse macrophages at 1 mg/kg/day, po administered for 3 days before BCG immunization measured after 24 hrs of LPS challenge by Griess reagent method. In kind it is functional. On the set-up: scale not given: the % may be the effect or the level left.

This is an account of results in ChEMBL document CHEMBL1150901, “Enhancement of NO production in activated macrophages in vivo by an antimalarial crude drug, Dichroa febrifuga” (J Nat Prod, 1998).

Each structure is given as a SMILES string. Calls of active or inactive are those of the source. The calls are words filed in the database; no cut-off is given here. Where only a bound is given, the exact number is not on record here.

Regarding `O=C(C[C@@H]1NCCC[C@H]1O)Cn1cnc2ccccc2c1=O` [FEBRIFUGINE], the Activity entry is “Dose-dependent effect” in data set [1], 378000000 in the data set on Mus musculus [2] and “Not Active” in the data set on Mus musculus [10]. Further, the result (in the data set on Macrophage [3]; in the data set on Macrophage [4]; in data set [5]) was Active. Also, the outcome (in the data set with Macrophage [6]; in data set [9]) was inactive. Moreover, the viability at 72 h is 10% in [7] and more than 90% in data set [8].
In turn, `C[C@@H]1CC[C@H]2[C@@H](C)C(=O)O[C@@H]3O[C@@]4(C)CC[C@@H]1[C@]32OO4` [ARTEMISININ] displayed an Activity in the data set with Macrophage [11] of 23%.
